In PubChem BioAssay AID1963853 (Molecular Pharmacology Branch, DTP, NCI, 2024):

Test system: 266295-075-R-J1-PDC spheroid viability
Assay: Anticancer human tumor 266295-075-R-J1-PDC patient-derived head and neck squamous carcinoma cell line growth inhibition [POLQ]
Details: spheroids with HUVEC and MSC; for IC50: curve of first compound; for viability, T/C: stronger effect = lower value
Summary of the method: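 Three-cell-type spheroids modelling solid tumor plus stroma served as the readout system; POL inhibitors were tested individually and in combination, concentration ranges set by clinical Cmax where known.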

[1] = second compound 0.0316 µM, first compound 0.0316 µM
[2] = second compound 0.0316 µM, first compound 0.1 µM
[3] = second compound 0.0316 µM, first compound 0.316 µM
[4] = second compound 0.0316 µM, first compound 1 µM
[5] = second compound 0.0316 µM, first compound 3.16 µM
[6] = second compound 0.0316 µM, first compound 10 µM
[7] = second compound 0.1 µM, first compound 0.0316 µM
[8] = second compound 0.1 µM, first compound 0.1 µM
[9] = second compound 0.1 µM, first compound 0.316 µM
[10] = second compound 0.1 µM, first compound 1 µM
[11] = second compound 0.1 µM, first compound 3.16 µM
[12] = second compound 0.1 µM, first compound 10 µM
[13] = second compound 0.316 µM, first compound 0.0316 µM
[14] = second compound 0.316 µM, first compound 0.1 µM
[15] = second compound 0.316 µM, first compound 0.316 µM
[16] = second compound 0.316 µM, first compound 1 µM
[17] = second compound 0.316 µM, first compound 3.16 µM
[18] = second compound 0.316 µM, first compound 10 µM
[19] = second compound 1 µM, first compound 0.0316 µM
[20] = second compound 1 µM, first compound 0.1 µM
[21] = second compound 1 µM, first compound 0.316 µM
[22] = second compound 1 µM, first compound 1 µM
[23] = second compound 1 µM, first compound 3.16 µM
[24] = second compound 1 µM, first compound 10 µM
[25] = second compound 3.16 µM, first compound 0.0316 µM
[26] = second compound 3.16 µM, first compound 0.1 µM
[27] = second compound 3.16 µM, first compound 0.316 µM
[28] = second compound 3.16 µM, first compound 1 µM
[29] = second compound 3.16 µM, first compound 3.16 µM
[30] = second compound 3.16 µM, first compound 10 µM
[31] = second compound 10 µM, first compound 0.0316 µM
[32] = second compound 10 µM, first compound 0.1 µM
[33] = second compound 10 µM, first compound 0.316 µM
[34] = second compound 10 µM, first compound 1 µM
[35] = second compound 10 µM, first compound 3.16 µM
[36] = second compound 10 µM, first compound 10 µM
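Also: spheroids exposed to compounds for seven days before readout.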

SMILES: CC1COCCN1c1cc(C2(O)CC3CCC(C2)O3)c2cnn(-c3ccn[nH]3)c2n1 (stereo not drawn) + Cc1cccc(N(C)C(=O)C2C(O)CCN2c2nc(C)cc(C(F)(F)F)c2C#N)c1
- IC50 (second compound 0.0316 µM): 0.839 µM
- IC50 (second compound 0.1 µM): 0.872 µM
- IC50 (second compound 0.316 µM): 0.92 µM
- IC50 (second compound 1 µM): 0.568 µM
- IC50 (second compound 3.16 µM): 0.86 µM
- IC50 (second compound 10 µM): 0.97 µM
- viability, T/C [1]: 84%
- viability, T/C [2]: 74.1%
- viability, T/C [3]: 61.3%
- viability, T/C [4]: 47%
- viability, T/C [5]: 36.8%
- viability, T/C [6]: 25%
- viability, T/C [7]: 86%
- viability, T/C [8]: 69.1%
- viability, T/C [9]: 76.2%
- viability, T/C [10]: 46%
- viability, T/C [11]: 37.5%
- viability, T/C [12]: 29.7%
- viability, T/C [13]: 82.1%
- viability, T/C [14]: 74.1%
- viability, T/C [15]: 60.6%
- viability, T/C [16]: 49%
- viability, T/C [17]: 37.6%
- viability, T/C [18]: 26.3%
- viability, T/C [19]: 94.1%
- viability, T/C [20]: 63.6%
- viability, T/C [21]: 58.4%
- viability, T/C [22]: 45.9%
- viability, T/C [23]: 40%
- viability, T/C [24]: 26.1%
- viability, T/C [25]: 89.5%
- viability, T/C [26]: 74%
- viability, T/C [27]: 60.3%
- viability, T/C [28]: 51.5%
- viability, T/C [29]: 34.5%
- viability, T/C [30]: 31.1%
- viability, T/C [31]: 114%
- viability, T/C [32]: 88.8%
- viability, T/C [33]: 69.1%
- viability, T/C [34]: 49.4%
- viability, T/C [35]: 35.2%
- viability, T/C [36]: 28.1%

SMILES: CCc1cc2c(N3CCc4c(cc(Cn5ccnc5)cc4-c4cn(C)nc4C(F)(F)F)C3=O)cc(C)nc2c(OC)n1 + Cc1cccc(N(C)C(=O)C2C(O)CCN2c2nc(C)cc(C(F)(F)F)c2C#N)c1
- IC50 (second compound 0.0316 µM): > 10 µM
- IC50 (second compound 0.1 µM): > 10 µM
- IC50 (second compound 0.316 µM): > 10 µM
- IC50 (second compound 1 µM): > 10 µM
- IC50 (second compound 3.16 µM): > 10 µM
- IC50 (second compound 10 µM): > 10 µM
- viability, T/C [1]: 72.8%
- viability, T/C [2]: 89%
- viability, T/C [3]: 81.6%
- viability, T/C [4]: 111%
- viability, T/C [5]: 130%
- viability, T/C [6]: 120%
- viability, T/C [7]: 102%
- viability, T/C [8]: 90.4%
- viability, T/C [9]: 101%
- viability, T/C [10]: 110%
- viability, T/C [11]: 89.3%
- viability, T/C [12]: 114%
- viability, T/C [13]: 97.7%
- viability, T/C [14]: 105%
- viability, T/C [15]: 102%
- viability, T/C [16]: 122%
- viability, T/C [17]: 131%
- viability, T/C [18]: 123%
- viability, T/C [19]: 87.1%
- viability, T/C [20]: 88.4%
- viability, T/C [21]: 102%
- viability, T/C [22]: 98.5%
- viability, T/C [23]: 135%
- viability, T/C [24]: 121%
- viability, T/C [25]: 83.7%
- viability, T/C [26]: 102%
- viability, T/C [27]: 117%
- viability, T/C [28]: 109%
- viability, T/C [29]: 138%
- viability, T/C [30]: 137%
- viability, T/C [31]: 101%
- viability, T/C [32]: 93.2%
- viability, T/C [33]: 111%
- viability, T/C [34]: 127%
- viability, T/C [35]: 122%
- viability, T/C [36]: 145%

SMILES: COc1cc2cc(C(=O)CCC(=O)O)sc2cc1OC + Cc1cccc(N(C)C(=O)C2C(O)CCN2c2nc(C)cc(C(F)(F)F)c2C#N)c1
- IC50 (second compound 0.0316 µM): > 10 µM
- IC50 (second compound 0.1 µM): > 10 µM
- IC50 (second compound 0.316 µM): > 10 µM
- IC50 (second compound 1 µM): > 10 µM
- IC50 (second compound 3.16 µM): > 10 µM
- IC50 (second compound 10 µM): > 10 µM
- viability, T/C [1]: 118%
- viability, T/C [2]: 112%
- viability, T/C [3]: 90%
- viability, T/C [4]: 117%
- viability, T/C [5]: 95.7%
- viability, T/C [6]: 96%
- viability, T/C [7]: 113%
- viability, T/C [8]: 103%
- viability, T/C [9]: 82.9%
- viability, T/C [10]: 111%
- viability, T/C [11]: 115%
- viability, T/C [12]: 115%
- viability, T/C [13]: 134%
- viability, T/C [14]: 112%
- viability, T/C [15]: 92.6%
- viability, T/C [16]: 114%
- viability, T/C [17]: 87%
- viability, T/C [18]: 84.8%
- viability, T/C [19]: 106%
- viability, T/C [20]: 87.2%
- viability, T/C [21]: 126%
- viability, T/C [22]: 104%
- viability, T/C [23]: 110%
- viability, T/C [24]: 80.3%
- viability, T/C [25]: 101%
- viability, T/C [26]: 112%
- viability, T/C [27]: 116%
- viability, T/C [28]: 109%
- viability, T/C [29]: 98.2%
- viability, T/C [30]: 91.3%
- viability, T/C [31]: 97.2%
- viability, T/C [32]: 109%
- viability, T/C [33]: 102%
- viability, T/C [34]: 104%
- viability, T/C [35]: 109%
- viability, T/C [36]: 89.2%

SMILES: O=C(Nc1ccc(O)c(NS(=O)(=O)c2ccc(F)cc2)c1)c1ccc(-c2ccccc2)cc1 + Cc1cccc(N(C)C(=O)C2C(O)CCN2c2nc(C)cc(C(F)(F)F)c2C#N)c1
- IC50 (second compound 0.0316 µM): > 10 µM
- IC50 (second compound 0.1 µM): > 10 µM
- IC50 (second compound 0.316 µM): > 10 µM
- IC50 (second compound 1 µM): > 10 µM
- IC50 (second compound 3.16 µM): > 10 µM
- IC50 (second compound 10 µM): > 10 µM
- viability, T/C [1]: 96.1%
- viability, T/C [2]: 104%
- viability, T/C [3]: 125%
- viability, T/C [4]: 139%
- viability, T/C [5]: 144%
- viability, T/C [6]: 103%
- viability, T/C [7]: 118%
- viability, T/C [8]: 104%
- viability, T/C [9]: 124%
- viability, T/C [10]: 110%
- viability, T/C [11]: 123%
- viability, T/C [12]: 97.7%
- viability, T/C [13]: 107%
- viability, T/C [14]: 87.6%
- viability, T/C [15]: 76.6%
- viability, T/C [16]: 95.2%
- viability, T/C [17]: 146%
- viability, T/C [18]: 88.3%
- viability, T/C [19]: 102%
- viability, T/C [20]: 97%
- viability, T/C [21]: 103%
- viability, T/C [22]: 129%
- viability, T/C [23]: 114%
- viability, T/C [24]: 85.5%
- viability, T/C [25]: 136%
- viability, T/C [26]: 94.5%
- viability, T/C [27]: 110%
- viability, T/C [28]: 136%
- viability, T/C [29]: 127%
- viability, T/C [30]: 103%
- viability, T/C [31]: 108%
- viability, T/C [32]: 113%
- viability, T/C [33]: 113%
- viability, T/C [34]: 108%
- viability, T/C [35]: 142%
- viability, T/C [36]: 97.2%
